Experiments:
hPPARα = target: T1, hPPARα (Homo sapiens, UniProt Q07869); assay: GAL-4 PPAR transactivation assay, agonist activity; conditions: 1, 2.5 and 5 μM; HepG2
T1 sequence (Q07869 239-466 limits assumed): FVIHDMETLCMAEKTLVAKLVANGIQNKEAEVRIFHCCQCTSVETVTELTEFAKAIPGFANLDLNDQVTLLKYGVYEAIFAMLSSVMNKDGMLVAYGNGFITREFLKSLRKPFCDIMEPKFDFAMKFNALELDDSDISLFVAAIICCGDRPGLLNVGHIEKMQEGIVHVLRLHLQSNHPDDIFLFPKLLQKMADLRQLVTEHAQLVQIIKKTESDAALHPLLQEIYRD

hPPARγ = target: T2, hPPARγ (Homo sapiens, UniProt P37231); assay: GAL-4 PPAR transactivation assay, agonist activity; conditions: 1, 2.5 and 5 μM; HepG2; data not shown
T2 sequence (P37231 238-503 limits assumed): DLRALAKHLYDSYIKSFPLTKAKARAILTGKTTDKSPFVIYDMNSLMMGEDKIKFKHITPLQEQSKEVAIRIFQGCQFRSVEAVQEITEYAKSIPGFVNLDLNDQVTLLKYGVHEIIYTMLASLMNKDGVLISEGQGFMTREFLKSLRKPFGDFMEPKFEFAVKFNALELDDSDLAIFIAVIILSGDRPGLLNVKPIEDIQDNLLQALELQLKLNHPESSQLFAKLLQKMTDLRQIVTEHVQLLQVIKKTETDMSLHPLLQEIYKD

[1] = system: paraganglioma (PGL) cell lines (PTJ64i, PTJ86i); assay: MTT cell viability, paraganglioma cell lines; type: cell-based; conditions: Homo sapiens, 72 h, read-out: inhibition rate in the PGL cell lines
[2] = system: colorectal cancer cell lines (HT-29, SW480); assay: MTT cell viability, colorectal cancer cell lines; type: cell-based; conditions: Homo sapiens, 72 h, read-out: inhibition rate in the colon cancer cell lines
[3] = system: eight human cancer cell lines (AsPC-1, BxPC-3, Capan-2, HT-29, SW480, PTJ64i, PTJ86i, A498); assay: MTT cell viability, eight human cancer cell lines, single concentration; type: cell-based; conditions: 75 μM, 72 h
CPT1A = assay: Expression of PPARα target gene CPT1A by RTqPCR; type: cell-based, human; conditions: HepG2, 48 h; test compounds 0.5 µM, GW7647 2 µM

Compound	inhibition at 75 µM [1] [%]	inhibition at 75 µM [2] [%]	further results
CC(C)(Oc1ccc(CCOc2ccc(/N=N/c3ccccc3)cc2)cc1)C(=O)NS(=O)(=O)c1ccccc1 [2b]			agonist activity on PPARα (hPPARα): no detectable PPARα/γ activity; agonist activity on PPARγ (hPPARγ): no detectable PPARα/γ activity
CC(C)(Oc1ccc(CCOc2ccc(/N=N/c3ccccc3)cc2)cc1)C(=O)NS(=O)(=O)c1ccc(Cl)cc1 [3c]	84 to 98	52 to 98	
CC(C)(Oc1ccc(CCOc2ccc(/N=N/c3ccccc3)cc2)cc1)C(=O)NS(=O)(=O)c1ccc([N+](=O)[O-])cc1 [3d]	84 to 98	52 to 98	
CC(C)(Oc1ccc(CCOc2ccc(NC(=O)c3ccccc3)cc2)cc1)C(=O)NS(=O)(=O)c1ccccc1 [10e]	84 to 98	52 to 98	
CCC(=O)NC[C@H](Cc1ccc(OCCc2nc(-c3ccccc3)oc2C)cc1)N/C(C)=C\C(=O)c1ccc(C(F)(F)F)cc1 [GW6471, reference compound]	85 to 92		effect on cell viability across the tumor cell lines tested [3]: showed antiproliferative activities
CC(C)(Sc1ccc(CCN(CCCCC2CCCCC2)C(=O)NC2CCCCC2)cc1)C(=O)O [GW7647]			CPT1A mRNA expression, compound alone (CPT1A): robustly stimulated CPT1A expression
Cc1cccc(Nc2cc(Cl)nc(SCC(=O)O)n2)c1C [Wy-14,643]			effect on cell viability across the tumor cell lines tested [3]: did not affect cell viability

Reference: publication PMC7236056 (ACS Medicinal Chemistry Letters, 2020)
